Source: article PMC5744665 (Journal of medicinal chemistry, 2015)

Legend:
PDC-3 = PDC-3 (Pseudomonas aeruginosa, UniProt P24735, T105A); assay type: biochemical
[1] = tested on: E.coli DH10B pBCSK- PDC-3; test: MIC by agar dilution, cefotaxime alone or with boronate, strain producing PDC-3; assay type: cell-based; settings: E. coli possessing the P. aeruginosa AmpC; BATSI added to cefotaxime
E.coli DH10B = test: microbe, parasite or virus in culture; assay type: cell-based; settings: Escherichia coli
[2] = tested on: O=C(Cc1cccs1)N[C@@H]1C(=O)N2C(C(=O)O)=C(/C=C/c3ccc([N+](=O)[O-])cc3[N+](=O)[O-])CS[C@H]12; test: purified protein, by the assay type; settings: other: substrate; used to correct Ki; pH 7.4

Compound: O=C(Cc1cccs1)N[C@@H](Cn1cc(C(=O)O)nn1)B(O)O [Compound 13a, (1R)-2-(4-Carboxy-[1,2,3]triazol-1-yl)-1-(2-thienylacetylamino)ethaneboronic acid]
- energetic contribution to binding of the carboxylate (ΔΔGbind) (PDC-3; 13a compared with 13f, from Ki vs PDC-3, ΔΔGbind = −RTln Ki ref/Ki): 2.2 kcal/mol
- improvement in recognition caused by ring hopping (ΔΔG) (PDC-3; 13a compared with Reference compound B): 0.7 kcal/mol
- reduction in MIC of cefotaxime [1]: five dilution (2 log) reduction

Compound: O=C(Cc1cccs1)N[C@@H](Cn1ccnn1)B(O)O [Compound 13f, (1R)-2-([1,2,3]triazol-1-yl)-1-(2-thienylacetylamino)ethaneboronic acid]
- contribution of the methyltriazole to binding (ΔΔG) (PDC-3; 13f compared with Ref Compound A, from Ki vs PDC-3): 0.5 kcal/mol

Compound: CO/N=C(\C(=O)N[C@@H]1C(=O)N2C(C(=O)O)=C(COC(C)=O)CS[C@H]12)c1csc(N)n1 [TAX, cefotaxime]
- MIC (E.coli DH10B): < 0.125 µg/mL

Compound: O=C(Cc1cccs1)N[C@@H]1C(=O)N2C(C(=O)O)=C(/C=C/c3ccc([N+](=O)[O-])cc3[N+](=O)[O-])CS[C@H]12 [nitrocefin, reference compound]
- Km (PDC-3; read-out: Km of nitrocefin, PDC-3, substrate, used to correct Ki): 14.6 ± 2.2 µM

Compound: P99 (Enterobacter cloacae)
- Km [2]: 20.03 ± 2.05 µM
